Measurements published in PMC3995910, “Effect of Proline Analogues on Activity of Human Prolyl Hydroxylase and the Regulation of HIF Signal Transduction Pathway” (PLoS ONE, 2014).

Biological target: T1, Prolyl hydroxylase 3 (PHD3) (Homo sapiens, UniProt Q9H6Z9)
T1 construct: gene EGLN3; recombinant human PHD3 expressed in E. coli, ~45 kDa
Assay: fluorescence-based 2OG consumption assay (OPD derivatization), double-reciprocal kinetics
Assay type: biochemical

T1 sequence (Q9H6Z9 whole entry): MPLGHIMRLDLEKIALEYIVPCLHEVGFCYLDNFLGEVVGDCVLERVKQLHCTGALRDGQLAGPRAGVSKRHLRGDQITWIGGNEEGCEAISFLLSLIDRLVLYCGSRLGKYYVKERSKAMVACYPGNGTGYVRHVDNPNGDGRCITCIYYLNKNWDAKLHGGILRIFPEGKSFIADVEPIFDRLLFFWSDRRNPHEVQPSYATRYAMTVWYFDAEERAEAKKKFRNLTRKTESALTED

Structure (SMILES) | Ki
O=C(Nc1ccccc1NC(=O)[C@H]1CCCN1)[C@H]1CCCN1 [PA1] | 1.09 µM
O=C(O)[C@H]1CCCN1C(=O)OCc1ccccc1 [PA2] | 2.38 µM
